Source: patent US6623723B2, “Method for treating bronchial constriction and bronchospasm” (Cellular Sciences Inc., priority 2001, dated 2003)

Tested on: subjects with mild bronchial asthma
Assay: Lung function (FEV-1 and PEF by spirometry) after a single inhaled dose in mild asthmatics
Format: in vivo, human
Details: single 5 ml inhaled dose
Description: Three concentrations of sodium pyruvate were studied; 0.5 mM, 1.5 mM and 5.0 mM. Sixty (60) subjects completed the study protocol. The 60 subjects included fifteen (15) non-asthmatic control individuals and forty-five (45) individuals with mild bronchial asthma. […] The total subject population was composed of 40 females and 20 males with a mean population age of 36.6 years (range of 18-66 years).
Individuals with mild bronchial asthma were divided into three groups of 15 subjects; each group received one of the three concentrations of sodium pyruvate. Each subject each inhaled a single dose of physiological saline (Visit 1) and on a return visit inhaled a single dose of 5.0 ml of one of the concentrations of sodium pyruvate (Visit 2).
Lung function assessments and vital signs were monitored at baseline (pre-dose) and at 15 minutes, 30 minutes 1 hour, 2 hours and 4 hours post administration. On a return visit (Visit 2), each subject inhaled a single 5 ml dose of sodium pyruvate in physiological saline. The physiological lung functions assessed included Forced Expiratory Volume in One Second (FEV-1) and Peak Expiratory Flow (PEF).
An FEV-1 and PEF values are obtained during routine spirometry testing. FEV-1 is the volume of air expelled in the first second of a forced expiration starting from full inspiration. It is the most widely accepted indicator of obstructive lung disease severity and used because it is objective and reproducible. PEF is the greatest flow rate that can be sustained for 10 milliseconds on forced expiration from full inflation of the lungs. Changes of greater than 10% FEV-1 and greater than 25% in PEF are generally accepted as clinically relevant ant were used as standards in data evaluation for this study.

## CC(=O)C(=O)[O-].[Na+] [sodium pyruvate]
0.5 mM sodium pyruvate, 15 minutes (p=0.012), 30 minutes (p=0.039), 1 hour (p=0.054), 2 hours (p=0.0001), compared to inhalation of physiological saline
  percent change in FEV-1: greater than 10%
0.5 mM sodium pyruvate, 15 minutes (p=0.014), 30 minutes (p=0.027), 1 hour (p=0.012), 2 hours (p=0.024), 4 hours (p=0.018), compared to inhalation of physiological saline
  percent change in PEF: greater than 25%
1.5 mM sodium pyruvate
  change in FEV-1: No significant change
  change in PEF: No significant change
5.0 mM sodium pyruvate
  change in FEV-1: No significant change
  change in PEF: No significant change
